Data on 1 compound can be found in patent US9734283B2, “Genomic features associated with epigenetic control regions and transgenerational inheritance of epimutations” (priority 2011, dated 2017).

The subject of series [1] is sperm promoter epigenome (DNA methylation). The series can be described thus: MeDIP-Chip with Affymetrix mouse promoter tiling arrays. It counts as in vivo. To be noted: duplicate arrays, no direct comparative hybridization; none confirmed by bisulfite PCR and mass spectrometry. An excerpt:
Affymetrics' GeneChip® Mouse Promoter 1.0R Array was used, which contains 4.6 million probes tiled that interrogate nearly 28,000 mouse promoter regions. These probes are 25-mer and tiled at an average resolution of 35 bp with gaps of approximately 10 bp between probes. Each promoter region covers approximately 6 kb upstream through 2.5 kb downstream of 5′ transcription start sites. A total of 6 arrays were used, one each for C1, C2, V1 and V2, one for C1+C2 and another for their DNA inputs, InpC1+InpC2.

The test system of a further series is CD-1 and 129 strain mice. The series can be described thus: Transgenerational pathology analysis of adult onset disease (testis, prostate, kidney). It counts as in vivo, mouse. On the procedure: (§1) The experimental design involved exposing gestating female inbred 129 strain and outbred CD-1 strain mice to daily intraperitoneal (IP) injections of vehicle (DMSO) (control) or vinclozolin at two doses, 100 mg/kg/day (V1) or 200 mg/kg/day (V2), between embryonic day 7-13 of gestation. In addition, a comparison was used with flutamide IP injections at a 20/mg/kg/day dose. The F1 generation males and females from different litters were bred to generate the F2 generation animals and F2 generation males and females from different litters were bred to generate the F3 generation animals, see Methods below. No sibling or cousin breedings occurred to avoid any inbreeding artifacts. Selected F1, F2 and F3 generation animals from postnatal 90 (P90) or 300 (P300) days of age were analyzed for testis, sperm and other pathologies as previously described.^11, 20, 21
(§2) Timed pregnant inbred 129 mice were given intraperitoneal injections with vinclozolin (100 mg/kg·day, 99% pure; ChemService, West Chester, Pa.), flutamide (20 mg/kg·day, Sigma, St. Louis, Mo.) or DMSO in sesame oil (vehicle) as controls, while timed pregnant outbred CD-1 mice were given intraperitoneal injections (IP) with vinclozolin doses: 100 mg/kg·day (V1) or 200 mg/kg·day (V2) or DMSO in sesame oil as controls.^21 Mice were given injections from embryonic day (E) E7-E13, with plug date equal to day 0. Controls were injected with vehicle (DMSO) dose and were matched with vinclozolin or flutamide treatment animals within the same mouse strain at the time of injection and were analyzed together throughout all three generations. The number of treated gestating females used were: for mouse 129 strain (3 controls and 4 vinclozolin treated); for mouse 129 strain flutamide 20 mg/kg/day dose (3 controls and 3 flutamide treated); and for mouse CD-1 strain (4 control and 3 vinclozolin treated (100 mg/kg/day (V1), 3 vinclozolin 200 mg/kg/day (V2)). F1 postnatal (P)P90 males and females from different litters of control, vinclozolin and flutamide treatment groups were bred to generate the F2 generation. F2 generation mice were bred to generate the F3 generation. Breedings were carefully monitored to eliminate any sibling or cousin breeding to remove potential phenotypes as a result of inbreeding. Male mice were collected and analyzed between P60-P90 (P90) for all generations and treatment groups. The number of P90 males collected for replicates for the mouse 129 strain vinclozolin treatment group (i.e. n value) were: for F1 (8 control, 11 vinclozolin); for F2 (11 control, 22 vinclozolin); and for F3 (11 control, 11 vinclozolin). […]

A further series relates to 129 and CD-1 mice. The series can be described thus: Litter size, sex ratio, body and tissue weights (toxicity). It counts as in vivo, mouse. To be noted: transient embryonic exposure. The protocol:
as §1, §2

The mark [2] stands for this setting: F3 generation vinclozolin lineage CD-1 mice, P300, p<0.02 vs controls.

Regarding `C=CC1(C)OC(=O)N(c2cc(Cl)cc(Cl)c2)C1=O` (racemic) [vinclozolin, (RS)-3-(3,5-dichlorophenyl)-5-methyl-5-vinyl-1,3-oxazolidine-2,4-dione], the “number of differential methylation regions identified with Affymetrix tiling arrays” value in series [1] is “seven”. Also, in the series on CD-1 and 129 strain mice (setting [2]), the “animals that developed at least one disease” value worked out at 75% and the “animals with two or more disease states” value amounted to 34%. Besides, the “proportion of mice exhibiting abnormal disease-like characteristics in testis, prostate, and kidney tissues” value in the series on CD-1 and 129 strain mice (aged (P300) F3 generation CD-1 strain, vinclozolin lineage vs control) is given as “increases”. Also, the “adult onset disease of the prostate, kidney, testis or ovaries” value in the series on CD-1 and 129 strain mice (inbred 129 strain mice, between treatment groups) is “no observable differences”. The “body weight, testis weight index, or kidney weight index” value in the series with 129 and CD-1 mice (F1-F3) is “no consistent transgenerational differences”. For the same compound, the “litter size or male/female sex ratio” value with 129 and CD-1 mice (all generations analyzed) is on record as “no consistent transgenerational effects”.
